Test results reported in patent US20230201217A1 (priority 2019, published 2023).

How the values were obtained:
plasma protein = test: Plasma protein binding; assay type: in vitro ADME, Rat
Text: There is no information on the protein binding of any of the metabolites.

healthy volunteers = test: Phase 1 first-in-human study, safety and tolerability; assay type: in vivo; design: key to AE Urinary tract infection (subject A1): Study Drug related / AE Retro-orbital headache (subject A2): Study Drug related / AE Hot coffee burn in hand and right forearm (subject A3): Study Drug related / AE Dry cough (subject A4): Study Drug related / AE Body pain (subject A5): Study Drug related / AE Occipital and frontal headache (subject A6): Study Drug related / AE Nausea (subject A1): Study Drug related / AE Arterial Hypotension (subject A1): Study Drug related / AE Pain - submandibular lymph node (subject A1): Study Drug related: 1 Not related; 2 Possible; 3 Probable
Description: None discontinued the study.
Safety was monitored by reported adverse events, hematology, serum chemistries (including electrolytes, renal and liver function, urinalysis, ECG and vital signs. In addition, a neurological examination (mini-mental status exam) including assessment for abnormal eye movement, nystagmus, tremors, reflexes, upper and lower extremity strength, distal sensor perception, intention tremor, the Romberg test, excessive somnolence and mental status were performed.

COCC[C@H]1CC2CN3CCc4c([nH]c5ccccc45)[C@](C(=O)OC)(C2)[C@H]13 [18-MC, 18-methoxycoronaridine]
% Bound Mean ± SD (plasma protein; 200 ng/mL): 92.9 ± 0.351%
% Bound Mean ± SD (plasma protein; 600 ng/mL): 94.9 ± 0.794%
% Bound Mean ± SD (plasma protein; 5,000 ng/mL): 90.2 ± 0.153%
Average % Bound Mean ± SD (plasma protein; average of 3 concentrations): 92.7 ± 2.36%
serious adverse events (healthy volunteers; 20 mg single dose, 4 mg twice): No serious adverse events occurred
dose at which safe in healthy volunteers (healthy volunteers; FIH study): up to 20 mg
AE Arterial Hypotension (subject A1): Severity (healthy volunteers; day noted 1): 1
AE Arterial Hypotension (subject A1): Study Drug related (healthy volunteers; day noted 1): 2
AE Nausea (subject A1): Severity (healthy volunteers; day noted 1): 1
AE Nausea (subject A1): Study Drug related (healthy volunteers; day noted 1): 2
AE Pain - submandibular lymph node (subject A1): Severity (healthy volunteers; day noted 1): 1
AE Pain - submandibular lymph node (subject A1): Study Drug related (healthy volunteers; day noted 1): 2
AE Retro-orbital headache (subject A2): Severity (healthy volunteers; day noted 1): 1
AE Retro-orbital headache (subject A2): Study Drug related (healthy volunteers; day noted 1): 2
AE Urinary tract infection (subject A1): Severity (healthy volunteers; day noted 2-30): 2
AE Urinary tract infection (subject A1): Study Drug related (healthy volunteers; day noted 2-30): 1
AE Occipital and frontal headache (subject A6): Severity (healthy volunteers; day noted 4): 2
AE Occipital and frontal headache (subject A6): Study Drug related (healthy volunteers; day noted 4): 1
AE Dry cough (subject A4): Severity (healthy volunteers; day noted 4 (CRF entry error)): 1
AE Dry cough (subject A4): Study Drug related (healthy volunteers; day noted 4 (CRF entry error)): 3
AE Hot coffee burn in hand and right forearm (subject A3): Severity (healthy volunteers; day noted 7): 1
AE Hot coffee burn in hand and right forearm (subject A3): Study Drug related (healthy volunteers; day noted 7): 1
AE Body pain (subject A5): Severity (healthy volunteers; day noted 30): 1
AE Body pain (subject A5): Study Drug related (healthy volunteers; day noted 30): 1
